Data reported in PubChem BioAssay AID330 (DTP/NCI, 2004).
Values joined by “and” are separate entries in the source; they are usually repeats but may differ in a detail not shown here. Equal values may be shown once. Inconclusive results and toxic doses are left out. Rule for the calls: active = survival T/C of 150% or more; inactive = T/C below 125% in these data.

Tested on: P388 leukemia ip, CD2F1 mice, survival T/C
Assay: NCI In Vivo Anticancer Drug Screen. Data for tumor model P388 Leukemia (intraperitoneal) in CD2F1 (CDF1) mice
Conditions: endpoint: median survival time, higher = longer survival
How it was run: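 Mice carrying the transplanted tumor received test compound or vehicle. Survival was recorded in each group, and the value is the treated-group measurement divided by that of the vehicle-treated control group.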

[1] = dose: 50.0 mg/kg/injection, schedule: Q01DX005 (ip), vehicle: Klucel (hydroxypropylcellulose) (HPC)
[2] = dose: 60.0 mg/kg/injection, schedule: Q01DX005 (ip), vehicle: Klucel (hydroxypropylcellulose) (HPC)
[3] = dose: 120.0 mg/kg/injection, schedule: Q01DX005 (ip), vehicle: Klucel (hydroxypropylcellulose) (HPC)
[4] = dose: 240.0 mg/kg/injection, schedule: Q01DX005 (ip), vehicle: Klucel (hydroxypropylcellulose) (HPC)

Measured: T/C

CC(C)(F)c1nc2ncncc2[nH]c1=O
inactive: dose: 100.0 mg/kg/injection, schedule: Q01DX001 (ip), vehicle: saline with Tween-80 103 % of control | dose: 200.0 mg/kg/injection, schedule: Q01DX001 (ip), vehicle: saline with Tween-80 103 % of control | dose: 400.0 mg/kg/injection, schedule: Q01DX001 (ip), vehicle: saline with Tween-80 93 % of control

CCCCCCCCCCCCCCCC[N+]1([O-])CCCCC1
inactive: dose: 12.5 mg/kg/injection, schedule: Q01DX009 (ip), vehicle: saline 101 % of control | dose: 25.0 mg/kg/injection, schedule: Q01DX009 (ip), vehicle: saline 108 % of control | dose: 50.0 mg/kg/injection, schedule: Q01DX009 (ip), vehicle: saline 100 % of control and 107 % of control

CC(C)c1ccccc1[S+]1OC(C)(C)c2ccccc21 (stereo not drawn)
inactive: dose: 50.0 mg/kg/injection, schedule: Q01DX009 (ip), vehicle: Klucel (hydroxypropylcellulose) (HPC) 107 % of control | dose: 100.0 mg/kg/injection, schedule: Q01DX009 (ip), vehicle: Klucel (hydroxypropylcellulose) (HPC) 103 % of control | dose: 200.0 mg/kg/injection, schedule: Q01DX009 (ip), vehicle: Klucel (hydroxypropylcellulose) (HPC) 95 % of control

CS(=O)(=O)C(CCC(=O)C(c1ccccc1)c1ccccc1)C(=O)c1ccccc1 (stereo not drawn)
inactive: [1] 110 % of control | dose: 100.0 mg/kg/injection, schedule: Q01DX005 (ip), vehicle: Klucel (hydroxypropylcellulose) (HPC) 109 % of control | dose: 200.0 mg/kg/injection, schedule: Q01DX005 (ip), vehicle: Klucel (hydroxypropylcellulose) (HPC) 93 % of control

Brc1cccc2c(SCCCCCCSc3c4ccccc4nc4c(Br)cccc34)c3ccccc3nc12
inactive: [2] 93 % of control | [3] 92 % of control | [4] 93 % of control

CCN(CC)CCCNC(c1ccc(OC)c(OC)c1)C(Cl)(Cl)Cl (stereo not drawn)
inactive: dose: 60.0 mg/kg/injection, schedule: Q01DX005 (ip), vehicle: saline 94 % of control | dose: 120.0 mg/kg/injection, schedule: Q01DX005 (ip), vehicle: saline 101 % of control

O=C(NC(=S)Nc1c(Cl)cccc1Cl)c1cccc(Cl)c1
inactive: dose: 12.5 mg/kg/injection, schedule: Q01DX005 (ip), vehicle: Klucel (hydroxypropylcellulose) (HPC) 106 % of control | dose: 25.0 mg/kg/injection, schedule: Q01DX005 (ip), vehicle: Klucel (hydroxypropylcellulose) (HPC) 92 % of control | [1] 94 % of control

CC(=O)NC(Cc1cccc(F)c1)C(=O)O (stereo not drawn)
inactive: dose: 1.56 mg/kg/injection, schedule: Q01DX009 (ip), vehicle: saline 111 % of control | dose: 3.12 mg/kg/injection, schedule: Q01DX009 (ip), vehicle: saline 106 % of control | dose: 6.25 mg/kg/injection, schedule: Q01DX009 (ip), vehicle: saline 107 % of control and 88 % of control

CC1=N[C@@H](C(=O)NCC(N)=O)Cc2c1[nH]c1ccccc21
inactive: dose: 60.0 mg/kg/injection, schedule: Q01DX005 (ip), vehicle: saline with Tween-80 98 % of control | dose: 120.0 mg/kg/injection, schedule: Q01DX005 (ip), vehicle: saline with Tween-80 93 % of control | dose: 240.0 mg/kg/injection, schedule: Q01DX005 (ip), vehicle: saline with Tween-80 93 % of control

CN(C(=O)NCCCl)C1=NC(O)(c2ccccc2)C(c2ccccc2)=N1 (stereo not drawn)
inactive: dose: 100.0 mg/kg/injection, schedule: Q04DX002 (ip), vehicle: saline with Tween-80 106 % of control | dose: 200.0 mg/kg/injection, schedule: Q04DX002 (ip), vehicle: saline with Tween-80 113 % of control | dose: 400.0 mg/kg/injection, schedule: Q04DX002 (ip), vehicle: saline with Tween-80 112 % of control

COc1ccc(-n2c(=O)c(N=Nc3ccc(C)cc3)c(O)n(-c3ccccc3Cl)c2=S)cc1
inactive: dose: 50.0 mg/kg/injection, schedule: Q01DX001 (ip), vehicle: Klucel (hydroxypropylcellulose) (HPC) 96 % of control | dose: 100.0 mg/kg/injection, schedule: Q01DX001 (ip), vehicle: Klucel (hydroxypropylcellulose) (HPC) 99 % of control | dose: 200.0 mg/kg/injection, schedule: Q01DX001 (ip), vehicle: Klucel (hydroxypropylcellulose) (HPC) 96 % of control

CCOC(=O)c1ccc(NC(=O)Nc2cc(OC)ccc2OC)cc1
inactive: [2] 98 % of control | [3] 99 % of control | [4] 101 % of control

CC(=O)OCC(C)[C@H](C)C(=O)C1OCOC(C2CC(=O)NC(=O)C2)[C@@H]1OC(C)=O (stereo partly drawn)
inactive: dose: 0.01 mg/kg/injection, schedule: Q01DX009 (ip), vehicle: distilled water + alcohol 100 % of control | dose: 0.03 mg/kg/injection, schedule: Q01DX009 (ip), vehicle: distilled water + alcohol 98 % of control | dose: 0.06 mg/kg/injection, schedule: Q01DX009 (ip), vehicle: distilled water + alcohol 98 % of control | dose: 0.12 mg/kg/injection, schedule: Q01DX009 (ip), vehicle: distilled water + alcohol 100 % of control

O=C1CSC(c2cc([N+](=O)[O-])ccc2Cl)N1c1nncs1 (stereo not drawn)
inactive: [2] 108 % of control | [3] 105 % of control | [4] 98 % of control

CSc1nc(N)c(I)c(Cl)n1
inactive: dose: 50.0 mg/kg/injection, schedule: Q04DX003 (ip), vehicle: saline with Tween-80 100 % of control | dose: 100.0 mg/kg/injection, schedule: Q01DX001 (ip), vehicle: saline 110 % of control | dose: 100.0 mg/kg/injection, schedule: Q04DX003 (ip), vehicle: saline with Tween-80 102 % of control | dose: 200.0 mg/kg/injection, schedule: Q01DX001 (ip), vehicle: saline 113 % of control | dose: 200.0 mg/kg/injection, schedule: Q04DX003 (ip), vehicle: saline with Tween-80 93 % of control | dose: 400.0 mg/kg/injection, schedule: Q01DX001 (ip), vehicle: saline 110 % of control
